Measurements reported in patent US20030170606A1, “High-throughput screening assays for modulators of mitochondrial membrane potential” (priority 1999, published 2003).

System: UCP1
Assay: DiSC3 fluorescence assay in permeabilized UCP1-expressing yeast cells (YUCP)
Format: cell-based
Experimental: To make the cells permeable to externally added compounds, the yeast cells were treated with zymolyase. The spheroplasts were cultured in full media for 0.5 hours and pelleted. The pellets were resuspended in a lysis buffer and stored at about −80° C. The permeabilized cells can be kept in this way for at least one half year without loss of activity.
To assess the effects of known modulators of uncoupling activity and of uncoupling protein activity, the following fluorescence intensity measurements were carried out: Permeabilized cells were combined with the fluorescent dye DiSC3 in buffer and incubated for about 5-60 min., usually less than about 30 min. The resulting fluorescence intensity (λexc=620 nm, λem=670 nm) corresponded to the basal ΔΨm. The mitochondria accumulate the fluorescent dye into the matrix in proportion to the ΔΨm, and at basal ΔΨm, the DiSC3 fluorescence is substantially quenched.
A Beckman Multimek™ 96 Automated 96-channel Pipettor was programmed to mix test compounds from master plates with the buffer containing freshly premixed permeabilized cells (0.1 OD) and DiSC3 (0.1 μM) and transfer this mixture to black 96-well plates. An LJL analyst was used in the fluorescence intensity mode to measure the DiSC3 fluorescence. […] A total of about 3,300 compounds were screened in this way to test the feasibility of this method.
Data are presented in FIG. 7B after transformation of the fluorescence data according to (Fcompd/Fcontrol−1), where Fcompd is the fluorescence intensity of a given well (as shown in FIG. 7A), and Fcontrol is the basal fluorescence obtained as an average intensity in column 1 where no compound was added (instead an equivalent volume of dimethyl sulfoxide (DMSO) was added).

## [Cl-].[K+] [KCl]
0 to 125 mM
  change in DiSC3 fluorescence intensity (plasma membrane potential control): no change in fluorescence intensity

## CCCCCCCCCCCCCCC(Br)C(=O)O (stereo not shown) [BrPalm, 2-bromo-palmitate]
5 to 10 μM
  DiSC3 fluorescence level upon addition of compound: higher fluorescence level

## Nc1nc2c(ncn2[C@@H]2O[C@H](COP(=O)(O)OP(=O)(O)O)[C@@H](O)[C@H]2O)c(=O)[nH]1 [GDP]
100 μM added in the presence of BrPalm
  DiSC3 fluorescence level upon addition of compound: reverted back to the level close to basal intensity

## N#CC(C#N)=NNc1ccc(Cl)cc1 [CCCP, carbonyl-cyanide p-chlorophenylhydrazone]
1 μM
  DiSC3 fluorescence level upon addition of compound: fluorescence reaches a maximum level
